Data: EP1388586A2, “Identification of broadly reactive DR restricted epitopes” (priority 1998, dated 1999)
Where two headings read alike, the source gives them in different places. Square brackets hold non-standard residues; d marks the D form. Ends that are not written are not given here. Peptide text beside a SMILES is read from it.

Tests used:
[1] = molecular target: T1, DRB1*1101 (DR5w11) (Homo sapiens, UniProt P01903+P01911, A100R/A169T/A87E/I96F/K41T/L162R/M171V/P40S/Q125H/Q178H/Q39Y/Q99D/R42S/S66Y/T262R/V115G/W38E); test: Class II peptide-binding assay, DR5w11;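 also: competition by unlabeled test peptide against iodinated probe peptide binding to affinity-purified HLA-DR, class II amount titrated beforehand, half-maximal inhibitory concentration read as approximate Kd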
T1 construct: used as sources of human HLA class II molecules; endogenous in cells; host or cells: SWEIG (EBV-transformed homozygous B cell line)
T1 sequence (P01903 26-254, other chains not shown): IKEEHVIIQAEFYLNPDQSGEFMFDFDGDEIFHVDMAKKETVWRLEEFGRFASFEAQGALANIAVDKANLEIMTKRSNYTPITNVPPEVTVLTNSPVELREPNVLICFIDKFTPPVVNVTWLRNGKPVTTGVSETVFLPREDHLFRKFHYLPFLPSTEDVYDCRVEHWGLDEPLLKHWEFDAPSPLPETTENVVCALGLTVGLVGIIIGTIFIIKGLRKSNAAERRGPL

[2] = molecular target: T2, DRB1*0401 (DR4w4) (Homo sapiens, UniProt P01903+P01911, A100K/A169T/F76Y/I96L/K127E/L162R/M171V/N62H/P40V/Q125Y/R42H/S133A/S149N/S66Y/V115G/V209L/W38E); test: Class II peptide-binding assay, DR4w4;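 also: unlabeled test peptides compete with a radiolabeled probe peptide for binding to affinity-purified HLA-DR, with DR amount titrated to capture a small fraction of label, IC50 approximating Kd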
T2 construct: used as sources of human HLA class II molecules; endogenous in cells; host or cells: PREISS (EBV-transformed homozygous B cell line)

[3] = molecular target: T3, DRB5*0101 (DR2w2a) (Homo sapiens, UniProt P01903+Q30154); test: Class II peptide-binding assay, DR2w2a (DR2w2B2);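 also: competitive binding assay: unlabeled peptide inhibiting binding of a radiolabeled probe peptide to purified DR molecules at pH 7.0, IC50 approximating Kd, lower means stronger binding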
T3 construct: used as sources of human HLA class II molecules; endogenous in cells; host or cells: GM3107 (EBV-transformed homozygous B cell line)

[4] = molecular target: DRB1*0701 (DR7) (Homo sapiens, UniProt P01903+P01911, A100R/A102G/A103Q/D57E/D86V/E43K/F76Y/K127E/L162R/M171V/P40G/Q125H/Q99D/R33Q/R42Y/R54Q/S133A/S66F/T210M/V115G/Y107V/Y59L/Y89S); test: Class II peptide-binding assay, DR7;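 also: unlabeled peptides compete with an iodinated probe peptide for binding to affinity-purified HLA-DR at neutral pH, DR amount titered to bind a small tracer fraction, IC50 approximating Kd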
Procedure: (§1) Class II peptide-binding assays. […] These assays were chosen as to be representative of the most common DR alleles.
Radiolabeled peptides were iodinated using the chloramine-T method. […] In appropriate stoichiometric conditions, the IC50 of an unlabeled test peptide to the purified DR is a reasonable approximation of the affinity of interaction (Kd). Peptides were tested in two to four completely independent experiments. […] Final detergent concentration in the incubation mixture was 0.05% Nonidet P-40. Assays were performed at pH 7.0 with the exception of DR3, which was performed at pH 4.5, and DRw53, which was performed at pH 5.0.
(§2) All subsequent inhibition and direct binding assays were the performed using these class II concentrations.

[5] = molecular target: T4, DRB1*0101 (DR1) (Homo sapiens, UniProt P01903+P01911, A100R/D57E/F55L/F60I/F76Y/I96L/L162R/M171V/P40L/Q125E/R42F/V115G/Y59C); test: Class II peptide-binding assay, DR1;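 also: competition assay: unlabeled test peptides inhibit binding of a radiolabeled probe peptide to purified DR, with half-maximal inhibition taken as an approximate dissociation constant Kd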
T4 construct: used as sources of human HLA class II molecules; endogenous in cells; host or cells: LG2 (EBV-transformed homozygous B cell line)

[6] = molecular target: T5, DRB10404 (DR4w14) (Homo sapiens, UniProt P01903+P01911, A100R/A169T/F76Y/I96L/K127E/L162R/M171V/N62H/P40V/Q125Y/R42H/S133A/S149N/S66Y/V209L/W38E); test: Class II peptide-binding assay, DR4w14;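 also: unlabeled peptides compete with a radiolabeled probe for binding to affinity-purified HLA-DR, neutral pH, class II amount titrated to bind a small fraction of label, IC50 approximates Kd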
T5 construct: used as sources of human HLA class II molecules; endogenous in cells; host or cells: BIN40 (EBV-transformed homozygous B cell line)
Procedure: as §1
(§3) In appropriate stoichiometric conditions, the IC50 of an unlabeled test peptide to the purified DR is a reasonable approximation of the affinity of interaction (Kd). Peptides were tested in two to four completely independent experiments. […] Final detergent concentration in the incubation mixture was 0.05% Nonidet P-40. Assays were performed at pH 7.0 with the exception of DR3, which was performed at pH 4.5, and DRw53, which was performed at pH 5.0.
as §2

[7] = molecular target: T6, DRB1*0301 (DR3w17) (Homo sapiens, UniProt P01903+P01911, A100K/A102G/A103R/A169T/F55Y/I96L/K41T/L162R/M171V/P40S/Q125H/Q178H/Q39Y/R42S/S66N/T106N/T262R/W38E/Y61H); test: Class II peptide-binding assay, DR3 (pH 4.5);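 also: unlabeled peptide competing with a radiolabeled probe peptide for binding to affinity-purified HLA-DR3, IC50 regarded as an approximation of Kd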
T6 construct: used as sources of human HLA class II molecules; endogenous in cells; host or cells: MAT (EBV-transformed homozygous B cell line)
T6 sequence (P01903 26-254, other chains not shown): as above
Procedure: as §1, §3, §2

[8] = read-out: In IC50 Format DR5w11, Table VIII
[9] = read-out: In IC50 Format DR4w4, Table VIII
[10] = read-out: In IC50 Format DR2w2β2, Table VIII
[11] = read-out: In IC50 Format DR7, Table VIII
[12] = read-out: In IC50 Format DR1, Table VIII
[13] = read-out: In IC50 Format DR4w14, Table VIII
[14] = read-out: In IC50 Format DR3, Table VIII
[15] = read-out: DR5w11 nM (In IC50 Format), purified HLA DR5w11
[16] = read-out: DR4w4 nM (In IC50 Format), purified HLA DR4w4
[17] = read-out: DR2w2B2 nM (In IC50 Format), purified HLA DR2w2β2
[18] = read-out: DR7 nM (In IC50 Format), purified HLA DR7
[19] = read-out: DR1 nM (In IC50 Format), purified HLA DR1
[20] = read-out: DR4w14 nM (In IC50 Format), purified HLA DR4w14
[21] = read-out: DR3 nM (In IC50 Format), purified HLA DR3
[22] = read-out: DR5w11 nM, Table VIII, In IC50 Format
[23] = read-out: DR4w4 nM, Table VIII, In IC50 Format
[24] = read-out: DR2w2B2 nM, Table VIII, In IC50 Format
[25] = read-out: DR7 nM, Table VIII, In IC50 Format
[26] = read-out: DR1 nM, Table VIII, In IC50 Format
[27] = read-out: DR4w14 nM, Table VIII, In IC50 Format
[28] = read-out: DR3 nM, Table VIII, In IC50 Format

Row | Compound | IC50 [1, 8] [nM] | IC50 [2, 9] [nM] | IC50 [3, 10] [nM] | IC50 [4, 11] [nM] | IC50 [5, 12] [nM] | IC50 [6, 13] [nM] | IC50 [7, 14] [nM] | IC50 [1, 15] [nM] | IC50 [2, 16] [nM] | IC50 [3, 17] [nM] | IC50 [4, 18] [nM] | IC50 [5, 19] [nM] | IC50 [6, 20] [nM] | IC50 [7, 21] [nM] | further results
1 | FFKNIVTPRFFKNIVTPR [Peptide 613.03] | 1670 | 4500 | 188 | 272 | 200 | 2000 | 75000 | – | – | – | – | – | – | – | –
2 | LLVIVELIPSTSS [Peptide 778.00] | – | – | – | – | – | – | – | 1110 | 28.1 | 2220 | 5000 | 67.6 | 82.5 | 60000 | –
3 | CC[C@H](C)[C@H](NC(=O)[C@@H](NC(=O)[C@@H](NC(=O)[C@H](CCC(=O)O)NC(=O)[C@H](CCCNC(=N)N)NC(=O)CN)[C@@H](C)O)C(C)C)C(=O)N[C@@H](CCC(=O)O)C(=O)N[C@@H](Cc1ccc(O)cc1)C(=O)N[C@@H](CC(C)C)C(=O)N[C@H](C(=O)N[C@@H](CO)C(=O)N[C@@H](Cc1ccccc1)C(=O)NCC(=O)N[C@H](C(=O)N[C@@H](Cc1c[nH]c2ccccc12)C(=O)O)C(C)C)C(C)C [Peptide 802.04] | – | – | – | – | – | – | – | 1540 | 833 | 1330 | 67.6 | 12.8 | 32.3 | 16700 | –
4 | KYLEFISEAIIHVLHSR [Peptide 508.01] | 4000 | 136 | 20000 | 338 | 294 | 2500 | 25000 | – | – | – | – | – | – | – | –
5 | DVFKELKVHHANENI [Peptide 519.00] | 118 | 40.9 | 571 | 463 | 9.6 | 250 | 150000 | – | – | – | – | – | – | – | –
6 | CC(C)C[C@H](NC(=O)[C@@H](NC(=O)[C@H](C)NC(=O)[C@H](C)NC(=O)[C@H](CCCCN)NC(=O)[C@H](C)NC(=O)[C@H](Cc1ccccc1)NC(=O)[C@H](CCCCN)NC(=O)[C@@H](C)N)[C@@H](C)O)C(=O)N[C@@H](CCCCN)C(=O)N[C@@H](C)C(=O)N[C@@H](C)C(=O)N[C@H](C)C(N)=O [Peptide 871.01] (H-[dA]KFAKAATLKAA[dA]-NH2) | – | – | – | – | – | – | – | – | – | – | – | – | – | – | IC50 [1, 22]: 14.6 nM; IC50 [2, 23]: 3.1 nM; IC50 [3, 24]: 14.7 nM; IC50 [4, 25]: 301 nM; IC50 [5, 26]: 4.2 nM; IC50 [6, 27]: 9.6 nM; IC50 [7, 28]: 37500 nM
7 | LVHSSNNFGAILSSTNVGS [Peptide 735.04] | – | – | – | – | – | – | – | 1250 | 11 | 5000 | 961 | 161 | 12.5 | 15800 | –
8 | DTVKLMYKGQPMTFRLLLV [Peptide 866.01] | – | – | – | – | – | – | – | – | – | – | – | – | – | – | IC50 [1, 22]: 169 nM; IC50 [2, 23]: 176 nM; IC50 [3, 24]: 7.7 nM; IC50 [4, 25]: 3570 nM; IC50 [5, 26]: 23 nM; IC50 [6, 27]: 10000 nM; IC50 [7, 28]: 42900 nM
9 | CSCC[C@H](N)C(=O)NCC(=O)N[C@@H](CCC(N)=O)C(=O)N[C@@H](CC(N)=O)C(=O)N[C@@H](CC(C)C)C(=O)N[C@@H](CO)C(=O)N[C@H](C(=O)N[C@@H](CO)C(=O)N[C@@H](CC(N)=O)C(=O)N1CCC[C@H]1C(=O)N[C@@H](CC(C)C)C(=O)NCC(=O)N[C@@H](Cc1ccccc1)C(=O)N[C@@H](Cc1ccccc1)C(=O)N1CCC[C@H]1C(=O)N[C@@H](CC(=O)O)C(=O)N[C@@H](Cc1c[nH]cn1)C(=O)O)[C@@H](C)O [Peptide 800.01] | – | – | – | – | – | – | – | 2000 | 68.8 | – | 154 | 94.3 | 2000 | 6820 | –
10 | YAEFQAEKTLKAAS-NH2 [Peptide 717.05] | – | – | – | – | – | – | – | 48.8 | 6.4 | 339 | – | 8.2 | 29.4 | 4000 | –
